Test results taken from PMC5519977, “Redox-dependent substrate-cofactor interactions in the Michaelis-complex of a flavin-dependent oxidoreductase” (Nature Communications, 2017).

Molecular target: T1, xenobiotic reductase A (XenA) (Pseudomonas putida, UniProt Q3ZDM6)
T1 construct: recombinant in E. coli Rosetta (DE3), pET28a; N-terminal His-tag removed with TEV protease; reconstituted with FMN
Assay: stopped-flow reoxidation of reduced enzyme
Assay type: biochemical
Conditions: reduced enzyme (FMNH-), anoxic, 50 mM Tris/HCl pH 8.0, 25 °C

T1 sequence (Q3ZDM6 entry or part of it): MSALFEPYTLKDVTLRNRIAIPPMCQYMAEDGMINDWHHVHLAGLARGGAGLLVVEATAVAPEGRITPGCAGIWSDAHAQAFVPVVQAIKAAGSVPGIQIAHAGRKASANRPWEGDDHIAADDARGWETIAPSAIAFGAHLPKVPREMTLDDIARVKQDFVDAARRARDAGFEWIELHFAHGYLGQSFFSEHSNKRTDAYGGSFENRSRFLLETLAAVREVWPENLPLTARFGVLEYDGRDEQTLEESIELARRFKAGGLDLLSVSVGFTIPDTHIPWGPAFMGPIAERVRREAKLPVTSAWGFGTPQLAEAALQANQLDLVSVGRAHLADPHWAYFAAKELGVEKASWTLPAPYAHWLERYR

SMILES	dissociation constant
O=c1ccc2ccc(O)cc2o1 [7-hydroxycoumarin]	dissociation constants of the reduced Michaelis complexes for the respective substrates
O=c1ccc2cccc(O)c2o1 [8-hydroxycoumarin]	dissociation constants of the reduced Michaelis complexes for the respective substrates
O=c1ccc2ccccc2o1 [coumarin]	dissociation constants of the reduced Michaelis complexes for the respective substrates
